Test results as given in ChEMBL document CHEMBL5233249, “Recent advancements in the development of heterocyclic anti-inflammatory agents” (Eur J Med Chem, 2020).
Each block holds one molecule with its values, some of them ahead of it.

Experiments:
Rattus norvegicus [1] = test: Anti-inflammatory activity in Carrageenan-induced paw edema in PO dosed Swiss albino rat model at 10 mg/kg assessed as inhibition in volume of edema measured after 1 hrs relative to control; type: functional
Mus musculus [2] = test: Anti-inflammatory activity against Carrageenan-induced paw edema in mouse model assessed as inhibition of edema at 100 mg/kg measured after 4 hrs relative to control; type: functional; set-up: scale not given: the % may be the effect or the level left
Rattus norvegicus [3] = test: Ulcerogenic activity in Swiss albino Wistar rat assessed as ulcer lesion score at 100 mg/kg, po; type: functional
[4] = biological target: T1, Prostaglandin G/H synthase 1 (Ovis aries, UniProt P05979); test: Inhibition of ovine COX-1 by EIA method
T1 sequence (P05979 whole entry): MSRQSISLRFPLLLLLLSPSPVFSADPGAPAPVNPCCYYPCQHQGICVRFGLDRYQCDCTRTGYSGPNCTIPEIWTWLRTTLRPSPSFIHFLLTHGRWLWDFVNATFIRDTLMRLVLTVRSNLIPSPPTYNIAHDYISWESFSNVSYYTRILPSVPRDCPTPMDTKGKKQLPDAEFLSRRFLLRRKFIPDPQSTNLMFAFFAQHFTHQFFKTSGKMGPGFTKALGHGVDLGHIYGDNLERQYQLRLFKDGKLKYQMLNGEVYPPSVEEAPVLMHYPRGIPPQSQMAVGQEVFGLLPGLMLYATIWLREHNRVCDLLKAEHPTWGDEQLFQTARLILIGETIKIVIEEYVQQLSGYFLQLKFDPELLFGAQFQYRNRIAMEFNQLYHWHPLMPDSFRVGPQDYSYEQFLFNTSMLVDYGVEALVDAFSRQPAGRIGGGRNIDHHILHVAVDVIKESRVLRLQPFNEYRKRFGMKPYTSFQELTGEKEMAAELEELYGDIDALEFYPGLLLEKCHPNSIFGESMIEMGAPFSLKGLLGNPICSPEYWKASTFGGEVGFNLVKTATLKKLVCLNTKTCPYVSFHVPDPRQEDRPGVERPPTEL

Rattus norvegicus [5] = test: Anti-inflammatory activity in Carageenan-induced foot paw edema in Sprague-Dawley rat at 50 mg/kg assessed as reduction in paw edema volume relative to control; type: functional; set-up: scale not given: the % may be the effect or the level left
Rattus norvegicus [6] = test: Anti-inflammatory activity in Carrageenan-induced paw edema in Wistar albino rat assessed as inhibition of edema measured after 1 hr relative to control; type: functional; set-up: scale not given: the % may be the effect or the level left
[7] = biological target: T2, Prostaglandin G/H synthase 2 (Homo sapiens, UniProt P35354); test: Inhibition of human COX-2 assessed as by fluorescence based microplate reader assay
T2 sequence (P35354 whole entry): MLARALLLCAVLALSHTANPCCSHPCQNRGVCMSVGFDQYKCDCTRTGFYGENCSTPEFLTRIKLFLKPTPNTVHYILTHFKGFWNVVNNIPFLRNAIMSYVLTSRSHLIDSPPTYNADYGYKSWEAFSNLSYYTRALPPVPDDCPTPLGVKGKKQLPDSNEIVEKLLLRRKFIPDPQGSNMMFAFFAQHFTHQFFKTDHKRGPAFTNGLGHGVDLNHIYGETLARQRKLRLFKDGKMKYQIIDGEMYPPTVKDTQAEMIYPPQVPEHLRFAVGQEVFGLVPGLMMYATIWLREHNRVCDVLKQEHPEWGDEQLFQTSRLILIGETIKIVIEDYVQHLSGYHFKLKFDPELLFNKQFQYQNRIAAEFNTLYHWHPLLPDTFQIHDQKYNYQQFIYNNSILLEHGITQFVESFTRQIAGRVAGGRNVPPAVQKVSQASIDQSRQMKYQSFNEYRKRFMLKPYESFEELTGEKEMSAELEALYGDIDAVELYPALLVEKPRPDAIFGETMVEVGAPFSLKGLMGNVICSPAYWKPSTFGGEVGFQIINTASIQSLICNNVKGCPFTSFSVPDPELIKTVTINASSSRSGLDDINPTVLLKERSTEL

Rattus norvegicus [8] = test: Anti-inflammatory activity in Carrageenan-induced paw edema in Wistar albino rat assessed as inhibition of edema measured after 5 hr relative to control; type: functional; set-up: scale not given: the % may be the effect or the level left
Rattus norvegicus [9] = test: Anti-inflammatory activity in Carrageenan-induced paw edema in Wistar albino rat assessed as inhibition of edema measured after 3 hr relative to control; type: functional; set-up: scale not given: the % may be the effect or the level left
RAW264.7 [10] = test: Anti-inflammatory activity in mouse RAW264.7 cells assessed as inhibition of LPS-induced NO production measured after 24 hrs; type: functional, cell-based; conditions: RAW264.7, 24 h
RAW264.7 [11] = test: Anti-inflammatory activity in mouse RAW264.7 cells assessed as LPS-induced reduction in NO production measured after 24 hrs; type: functional, cell-based; conditions: RAW264.7, 24 h
[12] = biological target: T3, Polyunsaturated fatty acid 5-lipoxygenase (Homo sapiens, UniProt P09917); test: Inhibition of 5-LOX (unknown origin) after 5 mins by colorimetric method
T3 sequence (P09917 whole entry): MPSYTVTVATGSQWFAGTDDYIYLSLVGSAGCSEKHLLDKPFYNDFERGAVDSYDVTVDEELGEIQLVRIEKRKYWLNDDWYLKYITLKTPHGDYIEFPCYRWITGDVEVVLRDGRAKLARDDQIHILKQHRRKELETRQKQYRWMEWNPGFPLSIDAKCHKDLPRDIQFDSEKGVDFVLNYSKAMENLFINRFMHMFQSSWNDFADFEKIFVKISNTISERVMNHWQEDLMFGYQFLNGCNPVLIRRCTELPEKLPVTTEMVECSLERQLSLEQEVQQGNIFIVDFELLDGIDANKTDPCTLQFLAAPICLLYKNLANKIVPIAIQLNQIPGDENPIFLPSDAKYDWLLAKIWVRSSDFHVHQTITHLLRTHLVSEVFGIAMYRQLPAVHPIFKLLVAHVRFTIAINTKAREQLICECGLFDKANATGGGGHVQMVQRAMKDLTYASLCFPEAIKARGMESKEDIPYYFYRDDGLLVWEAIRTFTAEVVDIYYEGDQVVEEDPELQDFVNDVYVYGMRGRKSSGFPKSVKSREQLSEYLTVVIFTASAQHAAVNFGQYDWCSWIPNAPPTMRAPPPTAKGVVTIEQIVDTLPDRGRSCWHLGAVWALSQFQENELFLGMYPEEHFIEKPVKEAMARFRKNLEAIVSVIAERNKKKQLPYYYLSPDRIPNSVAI

Mus musculus [13] = test: Anti-inflammatory activity in Carrageenan-induced paw edema in […] mouse model assessed as inhibition of edema at 200 mg/kg, po relative to control; type: functional; set-up: scale not given: the % may be the effect or the level left
Rattus norvegicus [14] = test: Anti-inflammatory activity in Carrageenan-induced paw edema in PO dosed rat model at 10 mg/kg assessed as inhibition of paw edema measured after 4 hrs relative to control; type: functional
Rattus norvegicus [15] = test: Anti-inflammatory activity in Carrageenan-induced paw edema in PO dosed rat model at 20 mg/kg assessed as inhibition of paw edema measured after 4 hrs relative to control; type: functional
Mus musculus [16] = test: Anti-inflammatory activity in Carrageenan-induced paw edema mouse model assessed as inhibition of granuloma measured after 24 hrs relative to control; type: functional
Rattus norvegicus [17] = test: Anti-inflammatory activity against formalin-induced foot paw edema in Wistar rat at 5 mg/kg, po assessed as inhibition of edema measured after 4 hr relative to control; type: functional
Mus musculus [18] = test: Analgesic activity in PO dosed Swiss albino mouse assessed as protection of paw edema measured after 2 hrs at 20 mg/kg relative to control; type: functional
Rattus norvegicus [19] = test: Anti-inflammatory activity against formalin-induced foot paw edema in PO dosed rat at 10 mg/kg assessed as inhibition of edema measured after 1 hr relative to control; type: functional; set-up: scale not given: the % may be the effect or the level left
Rattus norvegicus [20] = test: Anti-inflammatory activity in Carrageenan-induced paw edema in Wistar rat assessed as inhibition of paw edema; type: functional
Rattus norvegicus [21] = test: Anti-inflammatory activity in Carrageenan-induced rat paw edema in Wistar rat assessed as increase in paw edema volume at 1 hr relative to control; type: functional
Rattus norvegicus [22] = test: Anti-inflammatory activity in Carrageenan-induced rat paw edema in Wistar rat assessed as increase in paw edema volume at 2 hr relative to control; type: functional
Rattus norvegicus [23] = test: Anti-inflammatory activity in Carrageenan-induced rat paw edema in Wistar rat assessed as increase in paw edema volume at 4 hr relative to control; type: functional
Rattus norvegicus [24] = test: Anti-inflammatory activity in Carrageenan-induced rat paw edema in Wistar rat assessed as increase in paw edema volume at 1 hr; type: functional
Rattus norvegicus [25] = test: Anti-inflammatory activity in Carrageenan-induced rat paw edema in Wistar rat assessed as increase in paw edema volume at 4 hr; type: functional
[26] = biological target: Prostaglandin G/H synthase 1 (Homo sapiens, UniProt P23219); test: Inhibition of COX-1 (unknown origin) at 40 uM relative to control
Chain of Prostaglandin G/H synthase 1 (Homo sapiens, UniProt P23219) (P23219 whole entry): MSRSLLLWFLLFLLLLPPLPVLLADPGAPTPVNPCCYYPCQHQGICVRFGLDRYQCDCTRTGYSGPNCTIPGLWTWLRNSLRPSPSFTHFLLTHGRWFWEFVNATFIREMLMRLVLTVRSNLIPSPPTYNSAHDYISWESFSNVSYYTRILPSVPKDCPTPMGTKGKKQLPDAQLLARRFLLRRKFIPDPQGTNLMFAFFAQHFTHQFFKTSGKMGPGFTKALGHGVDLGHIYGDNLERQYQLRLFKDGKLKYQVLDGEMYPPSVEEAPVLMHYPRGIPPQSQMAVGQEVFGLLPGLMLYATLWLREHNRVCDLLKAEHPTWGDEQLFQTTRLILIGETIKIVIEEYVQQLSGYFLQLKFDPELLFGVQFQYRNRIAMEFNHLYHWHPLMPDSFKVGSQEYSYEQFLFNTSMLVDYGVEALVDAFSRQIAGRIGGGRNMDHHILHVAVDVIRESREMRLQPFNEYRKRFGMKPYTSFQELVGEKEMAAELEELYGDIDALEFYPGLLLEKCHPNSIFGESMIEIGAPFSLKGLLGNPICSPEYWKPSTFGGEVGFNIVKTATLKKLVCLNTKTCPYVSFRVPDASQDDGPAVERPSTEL

Rattus norvegicus [27] = test: Anti-inflammatory activity in Carrageenan-induced rat paw edema in Wistar rat assessed as increase in paw edema volume (reference value: 1.66 +/- 0.01); type: functional
Rattus norvegicus [28] = test: Anti-inflammatory activity in Carrageenan-induced rat paw edema in Wistar rat assessed as increase in paw edema volume relative to control; type: functional
Rattus norvegicus [29] = test: Anti-inflammatory activity in Carrageenan-induced rat paw edema in Wistar rat assessed as increase in paw edema volume at 2 hr; type: functional
Rattus norvegicus [30] = test: Anti-inflammatory activity in Carrageenan-induced paw edema in Swiss albino rat assessed as inhibition relative to control; type: functional

Structure (SMILES): Cc1c(-c2ccccc2)n(C(=O)c2ccccc2)c2ccc(S(C)(=O)=O)cc12
- inhibition in vivo at 10 mg/kg (Rattus norvegicus [1]): 73.1%

Structure (SMILES): O=C(NCn1c(-c2ccccc2Cl)nc2ccccc21)c1ccc(Cl)cc1
- Activity (Mus musculus [2]): 62.5%
- Activity (Rattus norvegicus [3]): 13.53 mm

Structure (SMILES): Cc1nn(-c2ccccc2)c2c1C(c1ccccc1Cl)N1C=CC=NC1=N2 (centres undefined)
- inhibition in vivo at 10 mg/kg (Rattus norvegicus [14]): 73%
- inhibition in vivo at 20 mg/kg (Rattus norvegicus [15]): 86%

Structure (SMILES): O=C(O)Cc1ccccc1Nc1c(Cl)cccc1Cl [DICLOFENAC]
- inhibition (INH) (Mus musculus [16]): 36.1%
- inhibition in vivo at 5 mg/kg (Rattus norvegicus [17]): 50%
- Activity (Mus musculus [18]): 65%
- Activity (Rattus norvegicus [19]): 30.43%
- Activity (Rattus norvegicus [3]): 32.5 mm

Structure (SMILES): O=C(NCn1c(CCl)nc2ccccc21)c1ccc(Cl)cc1
- Activity (Mus musculus [2]): 66.66%
- Activity (Rattus norvegicus [3]): 12.25 mm

Second part, led by results:

- IC50 [4]: 0.044 µM
Structure (SMILES): CC1=C(c2ccc(C(=O)NNC(=S)Nc3ccccc3)cn2)SC2Nc3ccccc3N12 (centres undefined)
- Activity (Rattus norvegicus [5]): 79.5%

- IC50 [4]: 123 µM
- IC50 [7]: 0.1 µM
Structure (SMILES): CSc1nn(-c2ccc(S(C)(=O)=O)cc2)c2ncnc(NCC(=O)/N=C/c3ccco3)c12
- Activity (Rattus norvegicus [6]): 2%
- Activity (Rattus norvegicus [8]): 88%
- Activity (Rattus norvegicus [9]): 79%

- IC50 [7]: 0.16 µM
Structure (SMILES): CCOc1cc(C)nn1C(=O)CNc1ncnc2c1c(C)nn2-c1ccccc1
- Activity (Rattus norvegicus [6]): 82%
- Activity (Rattus norvegicus [8]): 90%
- Activity (Rattus norvegicus [9]): 94%

- IC50 (RAW264.7 [10]): 15.4 µM
- IC50 (RAW264.7 [11]): 7.41 µM
Structure (SMILES): COc1cc(-c2cc3ccccc3nc2C(=O)c2ccc(F)cc2)cc(OC)c1OC

- IC50 [12]: 1.92 µM
Structure (SMILES): Cc1ccc(N/N=C2\C(=N)N(c3ccc(S(N)(=O)=O)cc3)N=C2N)cc1
- Activity (Mus musculus [13]): 15%

- IC50 [4]: 28.4 µM
- inhibition [26]: 73.4%
Structure (SMILES): C[C@H](NC(=O)c1nc2c(cnn2-c2ccccc2)c(=O)[nH]1)c1ccccc1
- ED50 (Rattus norvegicus [20]): 7.6 mg/kg
- inhibition (INH) (Rattus norvegicus [21]): 64%
- inhibition (INH) (Rattus norvegicus [22]): 65%
- inhibition (INH) (Rattus norvegicus [23]): 64%
- Activity (Rattus norvegicus [24]): 1.5 mL
- Activity (Rattus norvegicus [25]): 2.01 mL
- Activity (Rattus norvegicus [27]): 1.05 mL
- inhibition (INH) (Rattus norvegicus [28]): 64%
- Activity (Rattus norvegicus [29]): 1.69 mL
- inhibition (INH) (Rattus norvegicus [30]): 51%
